Measurements taken from ChEMBL document CHEMBL5104158, “Synthesis and human monoamine oxidase inhibitory activity of novel C2-, C3- and C4-substituted phthalonitriles” (Bioorg Med Chem Lett, 2022).
pIC50, pKi: −log10 of the molar value.

Columns and labels:
[1] = molecular target: T1, Amine oxidase [flavin-containing] A (Homo sapiens, UniProt P21397); assay: Inhibition of human MAO-A assessed as inhibition of H2O2 production using p-tyramine as substrate
T1 sequence (P21397 whole entry): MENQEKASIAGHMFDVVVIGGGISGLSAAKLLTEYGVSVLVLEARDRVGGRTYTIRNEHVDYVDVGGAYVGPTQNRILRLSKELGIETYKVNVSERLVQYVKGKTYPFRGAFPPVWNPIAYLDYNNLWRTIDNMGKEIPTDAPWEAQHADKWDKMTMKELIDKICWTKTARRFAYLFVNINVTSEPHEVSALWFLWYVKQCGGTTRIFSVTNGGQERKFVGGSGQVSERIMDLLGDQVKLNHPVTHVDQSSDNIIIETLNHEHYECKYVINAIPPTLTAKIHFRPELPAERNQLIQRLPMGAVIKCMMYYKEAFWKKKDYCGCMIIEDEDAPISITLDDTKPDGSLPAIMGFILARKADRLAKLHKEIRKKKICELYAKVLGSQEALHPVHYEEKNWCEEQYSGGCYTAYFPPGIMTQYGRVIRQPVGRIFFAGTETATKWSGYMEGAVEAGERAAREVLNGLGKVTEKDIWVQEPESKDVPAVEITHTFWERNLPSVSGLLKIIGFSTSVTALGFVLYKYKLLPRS

[2] = molecular target: T2, Amine oxidase [flavin-containing] B (Homo sapiens, UniProt P27338); assay: Inhibition of human MAO-B assessed as inhibition of H2O2 production using p-tyramine as substrate
T2 sequence (P27338 whole entry): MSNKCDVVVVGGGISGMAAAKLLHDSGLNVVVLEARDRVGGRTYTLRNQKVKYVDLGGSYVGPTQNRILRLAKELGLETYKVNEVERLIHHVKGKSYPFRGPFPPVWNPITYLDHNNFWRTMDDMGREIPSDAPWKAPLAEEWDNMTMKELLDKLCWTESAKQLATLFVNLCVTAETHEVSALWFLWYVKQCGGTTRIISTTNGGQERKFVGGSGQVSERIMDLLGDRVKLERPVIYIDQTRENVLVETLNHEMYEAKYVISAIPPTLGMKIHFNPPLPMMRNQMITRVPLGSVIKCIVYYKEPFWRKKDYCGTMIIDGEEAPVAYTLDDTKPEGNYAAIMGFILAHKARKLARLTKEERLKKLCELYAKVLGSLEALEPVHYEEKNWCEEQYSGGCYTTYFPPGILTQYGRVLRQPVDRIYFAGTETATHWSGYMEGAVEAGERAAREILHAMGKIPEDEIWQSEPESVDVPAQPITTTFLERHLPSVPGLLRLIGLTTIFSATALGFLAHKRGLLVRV

Homo sapiens = species on record: Homo sapiens; assay: Selectivity index, ratio of IC50 for inhibition of human MAO-A to IC50 for inhibition of human MAO-B
[3] = molecular target: T2, Amine oxidase [flavin-containing] B; assay: Mixed competitive inhibition of human MAO-B using p-tyramine as substrate by Lineweaver-Burk plot analysis
[4] = molecular target: T2, Amine oxidase [flavin-containing] B; assay: Reversible inhibition of human MAO-B assessed as enzyme residual activity using p-tyramine as substrate measured after dialysis by dialysis method
[5] = molecular target: T2, Amine oxidase [flavin-containing] B; assay: Inhibition of human MAO-B assessed as enzyme residual activity using p-tyramine as substrate
[6] = molecular target: T1, Amine oxidase [flavin-containing] A; assay: Inhibition of human MAO-A assessed as inhibition of H2O2 production using p-tyramine as substrate at 100 uM

Structure (SMILES) | pIC50 [1] | pIC50 [2] | Ratio IC50 (Homo sapiens) | pKi [3] | Activity [4] [%] | Activity [5] [%] | inhibition at 100 µM [6] [%]
COc1ccc(/N=N/c2ccc(C#N)c(C#N)c2)cc1-c1ccccc1 | 6.05 | 5.84 | 0.62 |  |  |  | 
N#Cc1ccc(/N=N/c2cc(-c3ccccc3)ccc2O)cc1C#N | 4.53 | 6.15 | 42 |  |  |  | 
N#Cc1ccc(/N=N/c2ccc(O)c(-c3ccccc3)c2)cc1C#N | 6.11 | 5.95 | 0.69 |  |  |  | 
COc1cc(S)c(/N=N/c2ccc(C#N)c(C#N)c2)cc1OC | 4.25 | 6.13 | 75.2 | 7.11 | 83.3 | 34.8 | 
CC(=O)Oc1ccc(-c2ccccc2)cc1/N=N/c1ccc(C#N)c(C#N)c1 |  | 5.42 | > 26.2 |  |  |  | 27
COc1cc(S)c(/N=N/c2cccc(C#N)c2C#N)cc1OC | 4.75 | 4.10 | 0.22 |  |  |  | 
